{"source": "ChEMBL document CHEMBL3885881", "about": "“DrugMatrix”", "key": {"Rattus norvegicus [1]": {"species": "Rattus norvegicus", "test": "DrugMatrix - Regimen: Daily Repeat", "format": "toxicity, organism-based, Sprague-Dawley", "set-up": "regimen Daily Repeat, gender Male, age 6-8 weeks", "settings": "in vivo, po, 75 mg/kg, route oral GAVAGE, dose level High, vehicle .5 % CMC"}, "Rattus norvegicus [2]": {"species": "Rattus norvegicus", "format": "toxicity, organism-based, Sprague-Dawley", "settings": "in vivo, po, 75 mg/kg, 24 h, route oral GAVAGE, dose level High, time 1 day, vehicle .5 % CMC", "description": "DrugMatrix - Regimen: Single"}, "[3]": {"settings": "[…], tissue Plasma, time 14 day"}}}
{"smiles": "Nc1ccc(Cl)cc1", "note": "[4-CHLOROANILINE]", "values": [{"measurement": "URIC ACID", "setting": "Rattus norvegicus [1]; 120 h, tissue Plasma, time 5 day", "value": 1.87, "unit": "mg/dL"}, {"measurement": "ABSOLUTE BASOPHIL", "setting": "Rattus norvegicus [1]; […], tissue Blood, time 14 day", "value": 0, "unit": "CELLS/uL"}, {"measurement": "ABSOLUTE EOSINOPHIL", "setting": "Rattus norvegicus [1]; […], tissue Blood, time 14 day", "value": 83.2, "unit": "CELLS/uL"}, {"measurement": "ABSOLUTE LYMPHOCYTE", "setting": "Rattus norvegicus [1]; […], tissue Blood, time 14 day", "value": 19196.8, "unit": "CELLS/uL"}, {"measurement": "ABSOLUTE MONOCYTE", "setting": "Rattus norvegicus [1]; […], tissue Blood, time 14 day", "value": 524.8, "unit": "CELLS/uL"}, {"measurement": "ABSOLUTE SEGMENTED NEUTROPHIL", "setting": "Rattus norvegicus [1]; […], tissue Blood, time 14 day", "value": 2275.2, "unit": "CELLS/uL"}, {"measurement": "BASOPHIL", "setting": "Rattus norvegicus [1]; […], tissue Blood, time 14 day", "value": 0, "unit": "%"}, {"measurement": "EOSINOPHIL", "setting": "Rattus norvegicus [1]; […], tissue Blood, time 14 day", "value": 0.4, "unit": "%"}, {"measurement": "ERYTHROCYTE COUNT", "setting": "Rattus norvegicus [1]; […], tissue Blood, time 14 day", "value": 3.73, "unit": "x10E6/uL"}, {"measurement": "HEMATOCRIT", "setting": "Rattus norvegicus [1]; […], tissue Blood, time 14 day", "value": 34.9, "unit": "%"}, {"measurement": "HEMOGLOBIN", "setting": "Rattus norvegicus [1]; […], tissue Blood, time 14 day", "value": 13.26, "unit": "G/DL"}, {"measurement": "LEUKOCYTE COUNT", "setting": "Rattus norvegicus [1]; […], tissue Blood, time 14 day", "value": 22.08, "unit": "x10E3/uL"}, {"measurement": "LYMPHOCYTE", "setting": "Rattus norvegicus [1]; […], tissue Blood, time 14 day", "value": 86.8, "unit": "%"}, {"measurement": "MEAN CORPUSCULAR HEMOGLOBIN", "setting": "Rattus norvegicus [1]; […], tissue Blood, time 14 day", "value": 35.82, "unit": "pg"}, {"measurement": "MEAN CORPUSCULAR HEMOGLOBIN CONCENTRATION", "setting": "Rattus norvegicus [1]; […], tissue Blood, time 14 day", "value": 38.02, "unit": "G/DL"}, {"measurement": "MEAN CORPUSCULAR VOLUME", "setting": "Rattus norvegicus [1]; […], tissue Blood, time 14 day", "value": 94.18, "unit": "fL"}, {"measurement": "MONOCYTE", "setting": "Rattus norvegicus [1]; […], tissue Blood, time 14 day", "value": 2.4, "unit": "%"}, {"measurement": "NEUTROPHIL", "setting": "Rattus norvegicus [1]; […], tissue Blood, time 14 day", "value": 10.4, "unit": "%"}, {"measurement": "NUCLEATED RED BLOOD CELLS", "setting": "Rattus norvegicus [1]; […], tissue Blood, time 14 day", "value": "1 /100WBC"}, {"measurement": "PLATELET COUNT", "setting": "Rattus norvegicus [1]; […], tissue Blood, time 14 day", "value": 846.6, "unit": "x10E3/uL"}, {"measurement": "ALANINE AMINOTRANSFERASE", "setting": "Rattus norvegicus [1]; [3]", "value": 56.6, "unit": "u/L"}, {"measurement": "ALBUMIN", "setting": "Rattus norvegicus [1]; [3]", "value": 4.38, "unit": "G/DL"}, {"measurement": "ALKALINE PHOSPHATASE", "setting": "Rattus norvegicus [1]; [3]", "value": 320.6, "unit": "u/L"}, {"measurement": "ASPARTATE AMINOTRANSFERASE", "setting": "Rattus norvegicus [1]; [3]", "value": 128, "unit": "u/L"}, {"measurement": "BLOOD UREA NITROGEN", "setting": "Rattus norvegicus [1]; [3]", "value": 15.4, "unit": "mg/dL"}, {"measurement": "CARBON DIOXIDE", "setting": "Rattus norvegicus [1]; [3]", "value": 29.8, "unit": "mmol/L"}, {"measurement": "CHLORIDE", "setting": "Rattus norvegicus [1]; [3]", "value": 103.2, "unit": "MEQ/L"}, {"measurement": "CHOLESTEROL", "setting": "Rattus norvegicus [1]; [3]", "value": 57, "unit": "mg/dL"}, {"measurement": "CREATININE", "setting": "Rattus norvegicus [1]; [3]", "value": 0.22, "unit": "mg/dL"}, {"measurement": "GLUCOSE", "setting": "Rattus norvegicus [1]; [3]", "value": 123.8, "unit": "mg/dL"}, {"measurement": "LACTATE DEHYDROGENASE", "setting": "Rattus norvegicus [1]; [3]", "value": 440.6, "unit": "u/L"}, {"measurement": "LIPASE", "setting": "Rattus norvegicus [1]; [3]", "value": 9.6, "unit": "u/L"}, {"measurement": "PHOSPHORUS", "setting": "Rattus norvegicus [1]; [3]", "value": 10.5, "unit": "mg/dL"}, {"measurement": "POTASSIUM", "setting": "Rattus norvegicus [1]; [3]", "value": 6.12, "unit": "MEQ/L"}, {"measurement": "SODIUM", "setting": "Rattus norvegicus [1]; [3]", "value": 148.96, "unit": "MEQ/L"}, {"measurement": "TOTAL BILIRUBIN", "setting": "Rattus norvegicus [1]; [3]", "value": 0.54, "unit": "mg/dL"}, {"measurement": "TOTAL PROTEIN", "setting": "Rattus norvegicus [1]; [3]", "value": 6.16, "unit": "G/DL"}, {"measurement": "URIC ACID", "setting": "Rattus norvegicus [1]; [3]", "value": 1.72, "unit": "mg/dL"}, {"measurement": "ABSOLUTE EOSINOPHIL", "setting": "Rattus norvegicus [2]; tissue Blood", "value": 269, "unit": "CELLS/uL"}, {"measurement": "ABSOLUTE LYMPHOCYTE", "setting": "Rattus norvegicus [2]; tissue Blood", "value": 17566.67, "unit": "CELLS/uL"}, {"measurement": "ABSOLUTE MONOCYTE", "setting": "Rattus norvegicus [2]; tissue Blood", "value": 600.33, "unit": "CELLS/uL"}, {"measurement": "ABSOLUTE SEGMENTED NEUTROPHIL", "setting": "Rattus norvegicus [2]; tissue Blood", "value": 3397.33, "unit": "CELLS/uL"}, {"measurement": "BASOPHIL", "setting": "Rattus norvegicus [2]; tissue Blood", "value": 0, "unit": "%"}, {"measurement": "EOSINOPHIL", "setting": "Rattus norvegicus [2]; tissue Blood", "value": 1.33, "unit": "%"}, {"measurement": "ERYTHROCYTE COUNT", "setting": "Rattus norvegicus [2]; tissue Blood", "value": 5.88, "unit": "x10E6/uL"}, {"measurement": "HEMATOCRIT", "setting": "Rattus norvegicus [2]; tissue Blood", "value": 36.53, "unit": "%"}, {"measurement": "HEMOGLOBIN", "setting": "Rattus norvegicus [2]; tissue Blood", "value": 13.03, "unit": "G/DL"}, {"measurement": "LEUKOCYTE COUNT", "setting": "Rattus norvegicus [2]; tissue Blood", "value": 21.83, "unit": "x10E3/uL"}, {"measurement": "LYMPHOCYTE", "setting": "Rattus norvegicus [2]; tissue Blood", "value": 81.67, "unit": "%"}, {"measurement": "MEAN CORPUSCULAR HEMOGLOBIN", "setting": "Rattus norvegicus [2]; tissue Blood", "value": 22.17, "unit": "pg"}, {"measurement": "MEAN CORPUSCULAR HEMOGLOBIN CONCENTRATION", "setting": "Rattus norvegicus [2]; tissue Blood", "value": 35.7, "unit": "G/DL"}, {"measurement": "MEAN CORPUSCULAR VOLUME", "setting": "Rattus norvegicus [2]; tissue Blood", "value": 62.13, "unit": "fL"}, {"measurement": "MONOCYTE", "setting": "Rattus norvegicus [2]; tissue Blood", "value": 2.67, "unit": "%"}, {"measurement": "NEUTROPHIL", "setting": "Rattus norvegicus [2]; tissue Blood", "value": 14.33, "unit": "%"}, {"measurement": "NUCLEATED RED BLOOD CELLS", "setting": "Rattus norvegicus [2]; tissue Blood", "value": "0 /100WBC"}, {"measurement": "PLATELET COUNT", "setting": "Rattus norvegicus [2]; tissue Blood", "value": 950.67, "unit": "x10E3/uL"}, {"measurement": "ALANINE AMINOTRANSFERASE", "setting": "Rattus norvegicus [2]; tissue Plasma", "value": 53, "unit": "u/L"}, {"measurement": "ALBUMIN", "setting": "Rattus norvegicus [2]; tissue Plasma", "value": 4.37, "unit": "G/DL"}, {"measurement": "ALKALINE PHOSPHATASE", "setting": "Rattus norvegicus [2]; tissue Plasma", "value": 533.33, "unit": "u/L"}, {"measurement": "ASPARTATE AMINOTRANSFERASE", "setting": "Rattus norvegicus [2]; tissue Plasma", "value": 101, "unit": "u/L"}, {"measurement": "BLOOD UREA NITROGEN", "setting": "Rattus norvegicus [2]; tissue Plasma", "value": 13.67, "unit": "mg/dL"}, {"measurement": "CARBON DIOXIDE", "setting": "Rattus norvegicus [2]; tissue Plasma", "value": 25.67, "unit": "mmol/L"}, {"measurement": "CHLORIDE", "setting": "Rattus norvegicus [2]; tissue Plasma", "value": 102.33, "unit": "MEQ/L"}, {"measurement": "CHOLESTEROL", "setting": "Rattus norvegicus [2]; tissue Plasma", "value": 75.33, "unit": "mg/dL"}, {"measurement": "CREATININE", "setting": "Rattus norvegicus [2]; tissue Plasma", "value": 0.19, "unit": "mg/dL"}, {"measurement": "GLUCOSE", "setting": "Rattus norvegicus [2]; tissue Plasma", "value": 168, "unit": "mg/dL"}, {"measurement": "LACTATE DEHYDROGENASE", "setting": "Rattus norvegicus [2]; tissue Plasma", "value": 480, "unit": "u/L"}, {"measurement": "LIPASE", "setting": "Rattus norvegicus [2]; tissue Plasma", "value": 9.67, "unit": "u/L"}, {"measurement": "PHOSPHORUS", "setting": "Rattus norvegicus [2]; tissue Plasma", "value": 13.93, "unit": "mg/dL"}, {"measurement": "POTASSIUM", "setting": "Rattus norvegicus [2]; tissue Plasma", "value": 6.69, "unit": "MEQ/L"}, {"measurement": "SODIUM", "setting": "Rattus norvegicus [2]; tissue Plasma", "value": 146.3, "unit": "MEQ/L"}, {"measurement": "TOTAL BILIRUBIN", "setting": "Rattus norvegicus [2]; tissue Plasma", "value": 0.23, "unit": "mg/dL"}, {"measurement": "TOTAL PROTEIN", "setting": "Rattus norvegicus [2]; tissue Plasma", "value": 6.3, "unit": "G/DL"}, {"measurement": "URIC ACID", "setting": "Rattus norvegicus [2]; tissue Plasma", "value": 2.2, "unit": "mg/dL"}]}
